Measured values published in article PMC13566268, “Everolimus-Involving Immunosuppression Attenuates Renal Interstitial Fibrosis Through Modulation of Mammalian Target of Rapamycin-Related Signal Transduction” (International Journal of Molecular Sciences, 2026).

Assay: Pharmacokinetic assessment of immunosuppressants (blood/plasma trough and AUC)
Format: in vivo, human
Conditions: Non-EVR group, plasma, mean ± SD
Description: Sampling was performed at both 1-month and 1-year posttransplantation. The area under the blood (plasma) concentration–time curve (AUC) was then calculated from these serial measurements.

COc1c(C)c2c(c(O)c1C/C=C(\C)CCC(=O)O)C(=O)OC2 [MPA, mycophenolic acid]
MPA AUC0–12 (at 1-month posttransplantation): 53500 ± 21000 ng·h/mL
MPA AUC0–12 (at 1-year posttransplantation): 51500 ± 20000 ng·h/mL
